One experiment relates to Chlamydia. The settings on record: stated as known; cited from earlier work.
The test system of a further experiment is protozoa. The conditions noted are these: stated as known; cited from earlier work.
Another experiment has as its system Trichomonas vaginalis. The experiment is described as follows: Effect on growth of clinically isolated Trichomonas vaginalis in Trichomonas medium F (Neutral Red colour, microscopic observation). The conditions noted are these: for MIC: Trichomonas vaginalis, 72 hours culture, read-out: minimum growth inhibitory concentration (MIC); for Color: Neutral Red marker (yellow = acid production/growth); for Color / Result of microscopic observation: 37° C., 72 hours; for Result of microscopic observation: inverted microscope. It is filed as cell-based. The protocol: The effect on Trichomonas vaginalis was investigated for luliconazole of the compound represented by the general formula (1). That is, 5×10^6 cells of clinically isolated Trichomonas vaginalis were seeded in Trichomonas medium F (6.5 mL, contained in tube) produced by Fujiyakuhin Co., Ltd. containing Neutral Red as a marker, and the preculture was carried out for 72 hours (preculture). It was confirmed that Trichomonas grew, the acid was actively produced, and Neutral Red was changed to be yellow. After that, the preculture was added to Trichomonas medium F by every 100 μL in order to carry out the main culture, to which 0.5 mL of a test solution was added. In this situation, the number of protozoas in the solution of preculture was 1.5×10^5 cells/mL. Three series of test solutions were prepared, in which the luliconazole concentrations were 200 μM (final concentration: 35.2 μM), 100 μM (final concentration: 17.6 μM), and 50 μM (final concentration: 8.8 μM), as luliconazole dissolved in 10% methanol saline solution. 0.5 mL of vehicle was added as a control. As for the vehicle, 10% methanol saline solution (final concentration: 0 μM) was used. Stirring was sufficiently performed after the addition, followed by culturing at 37° C. for 72 hours. After the completion of the cultivation, the color was discriminated, and the state of protozoas was observed by using an inverted microscope.
The same or equivalent investigation as that of Example 1 was performed while changing luliconazole to lanoconazole.

A further experiment deals with Candida albicans. Kind of experiment: In vitro antifungal activity on Candida albicans, broth microdilution method. The class given is cell-based. The settings on record: 48 hours, 80% growth inhibition, turbidity at 630 nm, read-out: minimum growth inhibitory concentration (MIC80). The protocol:
The minimum growth inhibitory concentration (MIC) was measured by means of the broth microdilution method (medicament ×2 dilution series) based on the use of […] medium (pH 7.0) buffered with 0.165 M morpholinopropanesulfonic acid. 100 μL of test microorganism yeast cells/sterilized physiological saline suspensions (1 to 5×10^3 cells/mL) and 100 μL of media previously added with respective compounds and medium not added with, compounds as a control were dispensed into respective wells of flat-bottom microculture plate.
In general terms: Broth dilution looks for growth in wells or tubes with falling amounts of substance.

The test system of experiment [1] is Chlamydia trachomatis (D/UW3/Cx). The experiment is described as follows: Anti-intracellular parasite action on Chlamydia trachomatis cultured in HeLa 229 host cells, fluorescent staining of inclusion bodies. The class given is cell-based. As to the method: The anti-intracellular parasite action was investigated by using Chlamydia trachomatis (D/UW3/Cx). That is, Chlamydia trachomatis was cultured in the presence of ×2 dilution series of 8 to 64 μg/ml of luliconazole by using HeLa 229 cells as the host. MEM added with 8% thermally inactivated FBS, to which 1 μg/ml of cyclohexamide was added, was used as the medium, and the culture was performed for 72 hours in 5% carbon dioxide gas at 37° C. After the culture, Chlamydia inclusion bodies were subjected to the fluorescent staining to be apple green with Chlamydia FA reagent “Seiken” (produced by DENKA SEIKEN Co., Ltd.), and the observation was performed by using a fluorescence microscope.

The source of these data is patent publication US20150352078A1, “PHARMACEUTICAL COMPOSITION FOR DISEASES CAUSED BY PATHOGENIC MICROORGANISMS SUCH AS CANDIDA” (POLA PHARMA INC., priority 2013, published 2015).

In brackets after ≈: the same amount, converted by molar mass. Like-named read-outs stand apart in the source and are kept apart here.

Consider `c1ccc(-c2ccc(C(c3ccccc3)n3ccnc3)cc2)cc1` (centres unmarked) [bifonazole], for which the anticlamydial action result in the experiment on Chlamydia is reported as “do not have”. For the same molecule, the antiprotozoal action entry in the experiment with protozoa is on record as “do not have”.

With `N#C/C(=C1/SCC(c2ccccc2Cl)S1)n1ccnc1` (centres unmarked) [Lanoconazole, 4-(2-chlorophenyl)-1,3-dithiolane-2-ylidene-1-imidazolyl acetonitrile], in the experiment with Trichomonas vaginalis, the MIC was about 17.6 µM (≈ 5.63 µg/mL). Moreover, the Color entry is “yellow” in the experiment with Trichomonas vaginalis (final concentration 8.8 μM), “red” with Trichomonas vaginalis (final concentration 17.6 μM) and “red” with Trichomonas vaginalis (final concentration 35.2 μM). The “Result of microscopic observation” value with Trichomonas vaginalis (final concentration 17.6 μM) was “protozoas were observed slightly”; in the experiment on Trichomonas vaginalis (final concentration 35.2 μM), “no protozoa was observed”. Moreover, the “growth of Trichomonas” value in the experiment on Trichomonas vaginalis (no concentration stated) is recorded as “inhibits the growth”. The MIC80 is 0.125 µg/mL (≈ 0.391 µM) with Candida albicans (strain IFO0197, 35° C.); 0.0625 µg/mL (≈ 0.195 µM) with Candida albicans (strain IFO0579, 35° C.); 0.0625 µg/mL (≈ 0.195 µM) in the experiment with Candida albicans (strain IFO1269, 35° C.); 0.5 µg/mL (≈ 1.56 µM) in the experiment with Candida albicans (strain TIMM3164, 35° C.).

For `CN(Cc1ccc(C(C)(C)C)cc1)Cc1cccc2ccccc12` [butenafine], in the experiment with Chlamydia, the anticlamydial action result is “do not have”. The antiprotozoal action entry with protozoa is recorded as “do not have”.

For `Clc1ccc(COC(Cn2ccnc2)c2ccc(Cl)cc2Cl)c(Cl)c1` (centres unmarked) [miconazole], in the experiment with Chlamydia, the anticlamydial action entry was “do not have”. The antiprotozoal action result in the experiment on protozoa is reported as “do not have”.

`CCC(C)(C)c1ccc(CC(C)CN2C[C@@H](C)O[C@@H](C)C2)cc1` (some centres unmarked) [amorolfin]: in the experiment with Chlamydia, the anticlamydial action result is given as “do not have”. The antiprotozoal action entry in the experiment with protozoa was “do not have”.

In the case of `N#C/C(=C1/SC[C@@H](c2ccc(Cl)cc2Cl)S1)n1ccnc1` [Luliconazole, (R)-(−)-(E)-[4-(2,4-dichlorophenyl)-1,3-dithiolane-2-ylidene]-1-imidazolyl acetonitrile], the MIC was about 8.8 µM (≈ 3.12 µg/mL) in the experiment on Trichomonas vaginalis and 32 µg/mL (≈ 90.3 µM) in experiment [1] (Chlamydia trachomatis, HeLa 229 host cells, 72 hours culture, read-out: MIC with respect to Chlamydia trachomatis). Further, the “growth of Trichomonas” value in the experiment on Trichomonas vaginalis (at 8.8 μM) was “inhibits the growth”. Further, the Color entry in the experiment on Trichomonas vaginalis (final concentration 8.8 μM) was “yellow”; with Trichomonas vaginalis (final concentration 17.6 μM), “red”; in the experiment with Trichomonas vaginalis (final concentration 35.2 μM), “red”. In addition, the “Result of microscopic observation” value with Trichomonas vaginalis (final concentration 8.8 μM) is “protozoas were observed slightly”; with Trichomonas vaginalis (final concentration 17.6 μM), “no protozoa was observed”; in the experiment with Trichomonas vaginalis (final concentration 35.2 μM), “no protozoa was observed”. The “observation result of Chlamydia inclusion bodies” value in experiment [1] (treatment with 8 μg/mL, FIG. 1 panel (A)) was “dot-shaped Chlamydia inclusion bodies stained apple green were observed”; in experiment [1] (treatment with 16 μg/mL, FIG. 1 panel (B)), “dot-shaped Chlamydia inclusion bodies stained apple green were observed”; in experiment [1] (treatment with 32 μg/mL, FIG. 1 panel (C)) it was “No inclusion body was found”. In addition, the MIC80 with Candida albicans (strain IFO0197, 35° C.) was 0.0625 µg/mL (≈ 0.176 µM); with Candida albicans (strain IFO0579, 35° C.), 0.0313 µg/mL (≈ 0.0883 µM); in the experiment on Candida albicans (strain IFO1269, 35° C.), 0.0625 µg/mL (≈ 0.176 µM); in the experiment with Candida albicans (strain TIMM3164, 35° C.), 0.5 µg/mL (≈ 1.41 µM).
